Patent US7722906B2, “Polyunsaturated fatty acid fractions of Nigella sativa L. seeds” (priority 2004, dated 2010)

System: writhing induced by parabenzoquinone
Experiment: Analgesic activity, writhing method
Format: in vivo, mice
Details: 5.0 mg/100 g.b.w.
Procedure: The analgesic activity of the Nigella sativa L. polyunsaturated fatty acid fraction was studied using the writhing method described by Okun et al. (1963). Thirty mature mice of both sexes weighing from 20 to 25 gm were divided into 3 groups of 10 mice each. The first group served as a control and the second group served as a standard (treated with paracetamol in a dose of 5 mg/100 gm body weight). The third group was injected subcutaneously with the Nigella sativa L. polyunsaturated fatty acid fraction. […] […] Animals devoid of writhing in each group were recorded and the analgesic potencies of paracetamol and the Nigella sativa L. polyunsaturated fatty acid fraction were determined as percent protection against writhing.

## CC(=O)Nc1ccc(O)cc1 [Paracetamol, paracetamol]
30 minutes
  % Protection: 100%
60 minutes
  % Protection: 60%
90 minutes
  % Protection: 40%
120 minutes
  % Protection: 20%
